As a reminder, the inhibition is the share of the control response that was lost under treatment.

Experiment [1] deals with yeast (Saccharomyces cerevisiae) α-glucosidase. The experiment is described as follows: α-Glucosidase inhibition (hydrolysis of 4-methylumbelliferyl-α-D-glucopyranoside, fluorescence). The format is biochemical. The following applies: pH 5.5, 20 minutes at 37° C. The method, then: As known in the art, α-glucosidase inhibitory activity can be measured as the ability of test samples to prevent the hydrolysis of 4-methylumbelliferyl-α-D-glucopyranosidase by yeast (Saccharomyces cerevisiae) α-glucosidase using known techniques. As will be understood by the skilled person, acarbose can be included in the assay as a positive control.
α-Glucosidase inhibitory activity is measured as the ability of test samples to prevent the hydrolysis of 4-methylumbelliferyl-α-D-glucopyranosidase by yeast (Saccharomyces cerevisiae) α-glucosidase.
Each sample (0.5 mL) was weighed and freeze-dried to determine its % dry matter. The samples were then resuspended in either dimethyl sulfoxide (DMSO) or DMSO:water (1:1) to a concentration of 15 mg/mL, after which the samples were serially diluted.
The substrate, 4-methylumbelliferyl-α-D-glucopyranoside, and enzyme, yeast α-glucosidase, were prepared in the assay buffer, sodium acetate buffer (pH 5.5). The substrate (final concentration 83 μM, 45 μL) was added to 96-well plates containing 45 μL enzyme (final concentration 1.7 mU/mL) and 10 μL of sample. […] The reaction was stopped by the addition of 100 mM sodium glycine buffer (100 μL, pH 10.6), the plate was shaken for a further 30 seconds, and the fluorescence intensity was measured at λex 355 nm and λem 460 nm. […]

Experiment [2] has as its system PEG2 production from 3T3 cells. Kind of experiment: PEG2 (prostaglandin E2) inhibition in 3T3 cells stimulated with calcium ionophore, EIA kit. The format is cell-based. The note with it: Mus musculus, NIH3T3, at 0.488 μg/mL, read-out: highest PEG2 inhibition observed. The text has this: An extract according to the invention can also be tested for anti-inflammatory activity. By way of a non-limiting example, the extracts may be tested for prostaglandin E2 (PGE2) activity. As known in the art, PGE2 inhibitory activity can be measured by the ability of test samples to inhibit PGE2 production in 3T3 cells when stimulated with calcium ionophore. As understood in the art, aspirin and ibuprofen may be included in the assay as a positive control. The in vitro production of PEG2 from 3T3 cells was measured using the Cayman Chemical Prostaglandin E2 monoclonal EIA (Enzyme Immuno Assay) kit. The cells were exposed to samples 3 and 6 and stimulated with calcium ionophore. The cell supernatants were then assayed for PEG2 production. The cell cytotoxicity of the samples was tested against 3T3 cells to confirm that the observed PEG2 inhibition was not due to cell cytotoxicity. Aspirin and ibuprofen were used as positive controls.

For the molecule fucoidan, in experiment [1], the “α-glucosidase inhibitory activity IC50” value came to 0.17 µg/mL.

As to `CC(C)Cc1ccc(C(C)C(=O)O)cc1` (centres unmarked) [ibuprofen], the inhibition at 0.488 µg/mL in experiment [2] was determined as 42.1%.

(Values after patent US11730178B2, “Extraction method” (THE PRODUCT MAKERS (AUSTRALIA) PTY LTD, priority 2012, dated 2023).)
